From patent US12319643B2, “Ionizable compounds and compositions and uses thereof” (Nitto Denko Corporation, priority 2015, dated 2025)

Assays:
[1] = pKa (Table 9, lipid formulations for siRNA); type: physicochemical; settings: only or first value of the cell
GFP = assay: EC50 of nanoparticle formulations, GFP siRNA; type: cell-based; settings: nanoparticles Ionizable compound/DOPE/Cholesterol/DMPE-PEG 50/28/21/1 mol %
Description: (§1) Example 39: Formulations were Prepared for Encapsulating a Small Interfering Nucleic Acid Agents (siRNA)
(§2) Lipid nanoparticle formulations were prepared with the following compositions: […]
(§3) (Ionizable compound/DOPE/Cholesterol/DMPE-PEG) mol % • 50/28/21/1.
The formulations were capable of encapsulating the siRNA, and retaining stability in human serum.

[2] = Serum stability of nanoparticle formulations, t(½) in human serum at 37 C; type: in vitro ADME; settings: Table 10, nanoparticles Ionizable compound/DOPE/Cholesterol/DMPE-PEG 50/28/21/1 mol %
Description: as §1, §2, §3
The formulations were capable of encapsulating the siRNA, and retaining stability in human serum. […]

[3] = Encapsulation efficiency for siRNA of lipid (nanoparticle) formulations; type: physicochemical; settings: Table 8: nanoparticles Ionizable compound/DOPE/DOPC/Cholesterol/DMPE-PEG 50/28/0/21/1, 50/28/0/20/2 or 26/21/21/31/1 mol %
Description: (§4) Example 38: Formulations were Prepared for Encapsulating a Small Interfering Nucleic Acid Agents (siRNA)
as §2

[4] = Particle size Z (ave) of siRNA lipid nanoparticle formulations; type: physicochemical; settings: Table 8: nanoparticles Ionizable compound/DOPE/DOPC/Cholesterol/DMPE-PEG 50/28/0/21/1, 50/28/0/20/2 or 26/21/21/31/1 mol %
Description: as §4, §2

Structure (SMILES) | pKa [1] | EC50 (GFP) [nM] | t(½) (hr) human serum 37 C. [2] [h] | EE* (%) Encapsulation efficiency for siRNA [3] [%] | Z (ave) nm [4] [nm]
CCCCCCCCCCCCCC(=O)OCCN(CCOC(=O)CCCCCCCCCCCCC)C(=O)CN1C[C@H](O)[C@@H](O)C1 [Compound A4, ((2-((3S,4S)-3,4-dihydroxypyrrolidin-1-yl)acetyl)azanediyl)bis(ethane-2,1-diyl) ditetradecanoate] | 5.8 |  |  |  | 
CCCCC/C=C\C/C=C\CCCCCCCC(=O)OCCN(CCOC(=O)CCCCCCC/C=C\C/C=C\CCCCC)C(=O)CN1C[C@@H](O)[C@H](O)C1 [Compound A5, ((2-((3R,4R)-3,4-dihydroxypyrrolidin-1-yl)acetyl)azanediyl)bis(ethane-2,1-diyl) (9Z,9′Z,12Z,12′Z)-bis(octadeca-9,12-dienoate)] | 6.1 | 6.9 | >50 |  | 
CCCCC/C=C\C/C=C\CCCCCCCC(=O)OCCN(CCOC(=O)CCCCCCC/C=C\C/C=C\CCCCC)C(=O)CN1C[C@@H](O)[C@@H](O)C1 [Compound A6, ((2-((3S,4R)-3,4-dihydroxypyrrolidin-1-yl)acetyl)azanediyl)bis(ethane-2,1-diyl) (9Z,9′Z,12Z,12′Z)-bis(octadeca-9,12-dienoate)] | 6.3 | 11 | >50 | 96 | 121
CCCCC/C=C\C/C=C\CCCCCCCC(=O)OCCN(CCOC(=O)CCCCCCC/C=C\C/C=C\CCCCC)C(=O)OCCN(C)C [Compound A7, (((2-(dimethylamino)ethoxy)carbonyl)azanediyl)bis(ethane-2,1-diyl) (9Z,9′Z,12Z,12′Z)-bis(octadeca-9,12-dienoate)] | 7.6 | 35 | >50 |  | 
CCCCC/C=C\C/C=C\CCCCCCCC(=O)OCCN(CCOC(=O)CCCCCCC/C=C\C/C=C\CCCCC)C(=O)OCC[N+](C)(C)C [Compound A8, 2-((bis(2-(((9Z,12Z)-octadeca-9,12-dienoyl)oxy)ethyl)carbamoyl)oxy)-N,N,N-trimethylethan-1-aminium] |  |  | >50 |  | 
CCCCCCCCCCCCCC(=O)OCCN(CCOC(=O)CCCCCCCCCCCCC)C(=O)CN1CC(CO)C1 [Compound A9, ((2-(3-(hydroxymethyl)azetidin-1-yl)acetyl)azanediyl)bis(ethane-2,1-diyl) ditetradecanoate] | 7.4 | 31 |  | 95 | 97
CCCCC/C=C\C/C=C\CCCCCCCC(=O)OCCN(CCOC(=O)CCCCCCC/C=C\C/C=C\CCCCC)C(=O)CN1CCN(CCCO)CC1 [Compound AA] | 7.4 | 22 |  | 90 | 120
CCCCC/C=C\C/C=C\CCCCCCCC(=O)OCCN(CCOC(=O)CCCCCCC/C=C\C/C=C\CCCCC)C(=O)CN1CCN(CCO)CC1 [Compound AB, ((2-(4-(2-hydroxyethyl)piperazin-1-yl)acetyl)azanediyl)bis(ethane-2,1-diyl) (9Z,9′Z,12Z,12′Z)-bis(octadeca-9,12-dienoate)] | 6.9 | 7.4 | >50 |  | 
CCCCCCCCCCCCCC(=O)OCCN(CCOC(=O)CCCCCCCCCCCCC)C(=O)CCCC(=O)O [Compound B8] | 4.3 |  | >50 |  | 
CCCC/C=C\C/C=C\CCCCCCCCOC(=O)CC(CC(=O)OCCCCCCCC/C=C\C/C=C\CCCCC)NC(=O)C[N+](C)(C)C (centres unmarked) [Compound C2, 2-((1-(((9Z,12Z)-heptadeca-9,12-dien-1-yl)oxy)-5-(((9Z,12Z)-octadeca-9,12-dien-1-yl)oxy)-1,5-dioxopentan-3-yl)amino)-N,N,N-trimethyl-2-oxoethan-1-aminium] |  | 33 |  | 95 | 111
CCCC/C=C\C/C=C\CCCCCCCCOC(=O)CC(CC(=O)OCCCCCCCC/C=C\C/C=C\CCCCC)NC(=O)CN(C)C (centres unmarked) [Compound C3, 1-((9Z,12Z)-heptadeca-9,12-dien-1-yl) 5-((9Z,12Z)-octadeca-9,12-dien-1-yl) 3-(2-(dimethylamino)acetamido)pentanedioate] | 6.9 |  |  |  | 
CCCCC/C=C\C/C=C\CCCCCCCCOC(=O)[C@H](CNC(=O)C[N+](C)(C)C)NC(=O)CCCCCCC/C=C\C/C=C\CCCCC [Compound C24, N,N,N-trimethyl-2-(((S)-3-(((9Z,12Z)-octadeca-9,12-dien-1-yl)oxy)-2-((9Z,12Z)-octadeca-9,12-dienamido)-3-oxopropyl)amino)-2-oxoethan-1l-aminium] |  | 92 | >50 | 98 | 127
CCCCC/C=C\C/C=C\CCCCCCCCOC(=O)[C@H](CNC(=O)CN(C)C)NC(=O)CCCCCCC/C=C\C/C=C\CCCCC [Compound C25, (9Z,12Z)-octadeca-9,12-dien-1-yl (S)-3-(2-(dimethylamino)acetamido)-2-((9Z,12Z)-octadeca-9,12-dienamido)propanoate] |  |  | >50 |  | 
CCCCC/C=C\C/C=C\CCCCCCCCOC(=O)CC(CC(=O)OCCCCCCCC/C=C\C/C=C\CCCCC)NC(=O)CN1CCN(CCO)CC1 [Compound CA, di((9Z,12Z)-octadeca-9,12-dien-1-yl) 3-(2-(4-(2-hydroxyethyl)piperazin-1-yl)acetamido)pentanedioate] |  | < 50 |  |  | 
CCCCC/C=C\C/C=C\CCCCCCCCOC(=O)CC(CC(=O)OCCCCCCCC/C=C\C/C=C\CCCCC)NC(=O)SCCN(C)C [Compound DD, di((9Z,12Z)-octadeca-9,12-dien-1-yl) 3-((((2-(dimethylamino)ethyl)thio)carbonyl)amino)pentanedioate] | 5.1 |  | >50 | 92 | 137
CCCCC/C=C\C/C=C\CCCCCCCCOC(=O)CC(CC(=O)OCCCCCCCC/C=C\C/C=C\CCCCC)NC(=O)OCCN(C)C [Compound E4, di((9Z,12Z)-octadeca-9,12-dien-1-yl) 3-(((2-(dimethylamino)ethoxy)carbonyl)amino)pentanedioate] |  | 2.7 | >50 | 94 | 131
CCCCC/C=C\C/C=C\CCCCCCCCOC(=O)[C@@H]1C[C@@H](NC(=O)CCN(C)C)CN1C(=O)CCCCCCC/C=C\C/C=C\CCCCC [Compound E37, (9Z,12Z)-octadeca-9,12-dien-1-yl (2S,4R)-4-(3-(dimethylamino)propanamido)-1-((9Z,12Z)-octadeca-9,12-dienoyl)pyrrolidine-2-carboxylate] | 9.2 |  |  |  | 
CCCCC/C=C\C/C=C\CCCCCCCCOC(=O)[C@@H]1C[C@@H](NC(=O)CCCN(C)C)CN1C(=O)CCCCCCC/C=C\C/C=C\CCCCC [Compound E38, (9Z,12Z)-octadeca-9,12-dien-1-yl (2S,4R)-4-(4-(dimethylamino)butanamido)-1-((9Z,12Z)-octadeca-9,12-dienoyl)pyrrolidine-2-carboxylate] |  |  | >50 |  | 
CCCCC/C=C\C/C=C\CCCCCCCCOC(=O)[C@@H]1C[C@@H](NC(=O)CCC[N+](C)(C)C)CN1C(=O)CCCCCCC/C=C\C/C=C\CCCCC [Compound E39, N,N,N-trimethyl-4-(((3R,5S)-5-((((9Z,12Z)-octadeca-9,12-dien-1-yl)oxy)carbonyl)-1-((9Z,12Z)-octadeca-9,12-dienoyl)pyrrolidin-3-yl)amino)-4-oxobutan-1-aminium] |  |  | >50 |  | 
CCCCC/C=C\C/C=C\CCCCCCCC(=O)OCCN(CCCN(C)C)C(=O)CCCCCCC/C=C\C/C=C\CCCCC [Compound F5, 2-((9Z,12Z)—N-(3-(dimethylamino)propyl)octadeca-9,12-dienamido)ethyl (9Z,12Z)-octadeca-9,12-dienoate] | 9.4 | 33 |  |  | 
CCCCC/C=C\C/C=C\CCCCCCCC(=O)OCCN(CCCCN(C)C)C(=O)CCCCCCC/C=C\C/C=C\CCCCC [Compound F6, 2-((9Z,12Z)—N-(4-(dimethylamino)butyl)octadeca-9,12-dienamido)ethyl (9Z,12Z)-octadeca-9,12-dienoate] | 9.3 |  |  |  | 
